Results from publication PMC2765639 (PLoS Neglected Tropical Diseases, 2009).
Read-outs that look alike come from different tables or passages of the source.

Legend:
[1] = tested on: A549; test: Mammalian cell line specificity assay (alamar blue); type: cell-based, human; conditions: Table S1; PMLSC library samples; read-out: EC50 Ave ± SD, A549
Experimental: Mammalian cells were cultured and maintained according to ATCC specifications (ATCC, Manassas, VA). Cell line drug susceptibility assays were performed in final volumes of 25 µL using our previously described 384-well microtiter plate format,[39]. […] Test and control compounds were added to individual wells as described above. Vehicle and positive controls were 1% DMSO and 10% DMSO, respectively (final well concentrations). Assay plates were incubated for 44–46 h at 37°C in the presence of 5% CO2 and growth inhibitory effects were determined as described above. Five µL of alamar blue reagent was added to each well and incubated for 2–4 h. Data were captured as described above.

[2] = tested on: L. major promastigotes; test: L. major promastigote drug susceptibility assay (alamar blue, 384-well); type: cell-based, Leishmania major; conditions: for primary hit (≥50% inhibition of signal readout): single concentration 10 µM, LOPAC, UP-CMLD DP validation set or PMLSC library
Experimental: Promastigotes were grown in vented T75 tissue culture flasks and maintained at 28°C. Promastigote cultures were initiated at 10^5 parasites per mL and subcultured every 3–4 days. L. major promastigote counts were performed in duplicate using a hemocytometer and particle counter (Beckman Coulter, Fullerton, CA). For HTS assays, L. major promastigote cultures were harvested during exponential growth phase (∼2.0–3.0×10^7 parasites/mL) and were not maintained past passage 20.
The final test compound concentration was 10 µM with a constant DMSO concentration of 1% in each assay well.
The L. major promastigote drug susceptibility assay was performed in a final volume of 25 µL using our previously described 384-well microtiter plate format,[39]. For automated HTS procedures, L. major promastigotes (5,000 parasites/22 µL) in complete growth medium were seeded into each well of the microtiter plates using a MAPC2 bulk dispenser (Titertek, Huntsville, AL). Test and control compounds (3 µL) were added to individual wells using a Velocity 11 V-prep (Menlo Park, CA) liquid handling system, equipped with a 384-well dispensing head, followed by centrifugation at 50 g for 1 min. […] Assay plates were allowed to incubate for 44 h at 28°C in the presence of 5% CO2. Five µL of alamar blue reagent were added to each assay plate well and incubated for 4 h at 28°C with 5% CO2. Data were captured on a Molecular Devices SpectraMax M5 (excitation560; emission590). Individual assay plate Z-factors were derived from the vehicle and positive controls, and data from plates were used only if Z-factors were >0.5 [50].
The assays were performed in duplicate with a final 10-point concentration range spanning 0.01–5.00 µM.

[3] = Table S1, PMLSC library samples, 10-point 0.01–5.00 µM, read-out: EC50 Ave ± SD, Lm
[4] = Leishmania major, assay optimization, 384-well format, read-out: EC50, L. major promastigotes, known leishmanicidals

Molecule | EC50 [1] [µM] | EC50 [2, 3] [µM] | other results
CN(C)C(=S)SSC(=S)N(C)C [CID 5455] | 0.75 ± 0.002 | 0.098 ± 0.012 | 
Nc1cccc2nc3ccccc3cc12 [CID 11352] | 4.7 ± 0.311 | 0.635 ± 0.026 | 
Nc1nsc2ccccc12 [CID 89966] | > 5 | 0.392 ± 0.04 | 
O=[N+]([O-])c1cc(-c2nnc(C34CC5CC(CC(C5)C3)C4)o2)cc([N+](=O)[O-])c1 [CID 380438] | > 5 | 0.117 ± 0.022 | 
CN(C)C(=O)c1ccc[n+](CC(=O)Nc2ccc(Cl)cc2)c1 [CID 422270] | 2.92 ± 0.32 | 0.289 ± 0.044 | 
Cc1nc2c(=O)n(C)c(=O)nc-2n(C)n1 [CID 460747] | 0.158 ± 0.018 | 0.202 ± 0.011 | 
COc1ccc2cc3[n+](cc2c1OC)CCc1cc2c(cc1-3)OCO2 [CID 629413] | > 5 | 0.379 ± 0.077 | 
COc1ccc2c3c(cccc13)NN=C2C [CID 644992] | > 5 | 0.255 ± 0.021 | 
Cc1nnc(Nc2ccccn2)c2ccccc12 [CID 645317] | > 5 | 0.723 ± 0.024 | 
[O-][N+]1=c2ccc(Nc3ccccc3)cc2=NC12CCCCC2 [CID 657546] | > 5 | 0.845 ± 0.136 | 
Cc1c(Cl)sn(-c2ccc(Cl)cc2)c1=O [CID 759209] | 2.58 ± 0.185 | 0.545 ± 0.118 | 
COc1ccc(S(=O)(=O)Nc2ccc(O)c3ccccc23)cc1 [CID 871185] | > 5 | 0.287 ± 0.145 | 
O=C(Nc1ccc(Cl)cn1)c1ccc([N+](=O)[O-])o1 [CID 952234] | 4.08 ± 0.352 | 0.205 ± 0.021 | 
O=c1c(Cl)nc2cc(Cl)ccc2n1CCNc1ncc(C(F)(F)F)cc1Cl [CID 1471937] | 4.31 ± 0.54 | 0.513 ± 0.052 | 
COc1ccc(NC(=O)/C(Cl)=C(/Cl)[S+]([O-])Cc2ccccc2Cl)cn1 (stereo not drawn) [CID 1475345] | 0.955 ± 0.025 | 0.242 ± 0.029 | 
Cc1cc(C(=O)CCl)c(C)n1Cc1ccco1 [CID 1537038] | > 5 | 0.784 ± 0.036 | 
CCOC(=O)c1c2c(n(C)c1C)C(=O)C(=O)c1ccc(Br)cc1-2 [CID 1736381] | 0.613 ± 0.109 | 0.087 ± 0.021 | 
Clc1ccccc1C(c1ccccc1)(c1ccccc1)n1ccnc1 [Clotrimazole, reference compound] |  |  | primary hit (≥50% inhibition of signal readout) [2]: primary hits
COc1ccc2cc3[n+](cc2c1OC)CCc1cc2c(cc1-3)OCO2 [berberine, reference compound] |  |  | primary hit (≥50% inhibition of signal readout) [2]: primary hits
CC(=O)N1CCN(c2ccc(OCC3COC(Cn4ccnc4)(c4ccc(Cl)cc4Cl)O3)cc2)CC1 (stereo not drawn) [ketoconazole, reference compound] |  |  | primary hit (≥50% inhibition of signal readout) [2]: primary hits
COc1c(C)c2c(c(O)c1C/C=C(\C)CCC(=O)O)C(=O)OC2 [mycophenolic acid, reference compound] |  |  | primary hit (≥50% inhibition of signal readout) [2]: primary hits
O=C(Nc1ccc([N+](=O)[O-])cc1Cl)c1cc(Cl)ccc1O [niclosamide, reference compound] |  |  | primary hit (≥50% inhibition of signal readout) [2]: primary hits
NC[C@@H]1O[C@H](O[C@H]2[C@@H](O)[C@H](O[C@@H]3[C@@H](O)[C@H](N)C[C@H](N)[C@H]3O[C@H]3O[C@H](CO)[C@@H](O)[C@H](O)[C@H]3N)O[C@@H]2CO)[C@H](N)[C@@H](O)[C@@H]1O [paromomycin, reference compound] |  |  | EC50 [2, 4]: 19.7 ± 0.6 µM
N=C(N)c1ccc(OCCCCCOc2ccc(C(=N)N)cc2)cc1 [pentamidine, reference compound] |  |  | EC50 [2, 4]: 0.36 ± 0.02 µM
CCN(CC)CCCC(C)Nc1c2ccc(Cl)cc2nc2ccc(OC)cc12 (stereo not drawn) [quinacrine, reference compound] |  |  | primary hit (≥50% inhibition of signal readout) [2]: primary hits
O=C(O)[C@@H]1[O][Sb](=[O])([O][Sb]2(=[O])[O][C@H]([C@H](O)CO)[C@H](O)[C@H](C(=O)O)[O]2)[O][C@H]([C@H](O)CO)[C@@H]1O.[Na+].[Na+].[Na+] (stereo partly drawn) [sodium stibogluconate, reference compound] |  |  | EC50 ([2]; assay optimization, 384-well format, read-out: EC50, L. major promastigotes, known leishmanicidals): > 100 µM
CC/C(=C(\c1ccccc1)c1ccc(OCCN(C)C)cc1)c1ccccc1 [tamoxifen, reference compound] |  |  | primary hit (≥50% inhibition of signal readout) [2]: primary hits
ivermectin [reference compound] |  |  | primary hit (≥50% inhibition of signal readout) [2]: primary hits
